Data from a melting point compilation (Tetko et al.; mined from patent text by program, amines drawn as free bases though some values may be those of a salt).

SMILES | melting point
CCc1nc2ncnn2c(N)c1CCc1ccccc1 | 210 to 211 °C
C=C(c1ccc(F)cc1)c1ccccc1Cl | 73 to 74 °C
Cc1ccc(C(C)N(O)C(N)=S)s1 (stereo unspecified) | 155 °C
CCCOc1ccc(CO)cc1-c1nc2c(CCC)nn(C)c2c(=O)[nH]1 | 174 to 175 °C
O=C(O)CNCCn1nc(-c2c(-c3ccccc3)nn3ccccc23)ccc1=O | 230 to 232 °C
CC(C)(C)c1cc(C=C2CON(C(N)=O)C2=O)cc(C(C)(C)C)c1O | 178 to 181 °C
OCc1cc(C2CN(CCCCCCOCCCCc3ccccc3)CO2)ccc1O (racemic) | 72 to 75 °C
Cn1ccnc1Sc1ncc([N+](=O)[O-])n1C | 123 to 124 °C
CS(=O)(=O)Nc1ccc(C(=O)O)cc1Oc1ccc(F)cc1F | 167 to 169 °C
COC(=O)c1ccc(NC(C)=O)c(C=NO)c1 | 200 to 203 °C
CC1(C)C(C=C2CC2(F)F)C1C(=O)O (stereo unspecified) | 78.9 °C
O=C(O)COc1ccc2c(c1)-c1nc(SC(c3ccccc3)c3ccccc3)sc1CC2 | 141 to 143 °C
CC1(C)CN=C2C(=O)c3cc(S(=O)(=O)N4CCCC4)ccc3N2C1 | 200 to 201 °C
CCCCCCCCOCCCCC(=O)O | < 30 °C
COc1ccc2c(c1C=O)Nc1ccccc1S2 | 155 to 160 °C
Cc1[nH]c(=O)[nH]c1-c1cc(C(C)(C)C)c(O)c(C(C)(C)C)c1 | > 270 °C
CCCc1c(OCCCCCc2ccc3cc(O)c(O)cc3c2)ccc(C(=O)O)c1O | 165 to 167 °C
C#Cc1c[nH]c2nc(NC(=O)C(C)(C)C)nc(O)c12 | > 300 °C
COC(=O)Cc1ccc(C#C[Si](C)(C)C)cc1 | 55 to 58 °C
Cc1c(Br)cccc1N1CCn2c(cc3c2CCCC3)C1=O | 163 to 165 °C
Clc1cccc2[nH]c3c4ccccc4nc-3c(Cl)c12 | 275 to 277 °C
Nc1ccc2oc(Cc3ccccc3)cc2c1 | < 50 °C
COC(=O)c1ccc2c(CBr)csc2c1 | 108 to 110 °C
Cc1c(-c2ccccc2)n(Cc2ccccc2)c2ccc(-c3ccc(OCC(=O)O)cc3)cc12 | 174 to 175 °C
Cc1cccc(-c2nc(N)ncc2-c2ccc(=O)n(C)n2)c1 | 214 °C
CCCN(Cc1ccc(-c2ccccc2-c2nc(=O)o[nH]2)cc1)c1nn(C)cc1C(=O)O | 124 to 126 °C

SMILES | melting point
Cc1cccc(I)c1C(=O)Nc1ccccc1[N+](=O)[O-] | 115 °C
Clc1cc(CCc2ccccn2)c2oc(-c3cnccn3)nc2c1 | 160 to 161 °C
CC(C)(C)CNc1nc(Cl)cc(Cl)n1 | 63 to 66 °C
CCOC(=O)COc1ccc(CCC(=O)OC)cc1[N+](=O)[O-] | 70 to 72 °C
CCc1nc(/C=C/c2cn(-c3ccccc3)nc2OCc2ccc(OCc3nc(-c4ccc(CC(=O)O)cc4)oc3C)c(OC)c2)co1 | 117 to 119 °C
c1ccc(COc2ncnc3nc[nH]c23)cc1 | 175 to 177 °C
CCCc1c(OCCCOc2ccccc2)ccc2c1OC(CCC(=O)O)(CCC(=O)O)CC2 | 130 to 132 °C
COc1cc(C)c2c(=O)c3c(OC)cccc3oc2c1OC | 158 °C
C#CCOc1cc(-n2c(=S)n3n(c2=S)COCC3)c(F)cc1Cl | 167 to 169 °C
O=P(Cc1ccc(O)cc1)(c1ccccc1)c1ccccc1 | 125 °C
CCN1CCN(Cc2nc(-c3ccc4c(c3)Nc3ccccc3S4)cs2)CC1 | 182 to 184 °C
CCN(CC)CCNC(=O)c1cc(Cl)c(N)cc1OCC(=O)Cc1ccccc1 | 138 to 139 °C
CC1(C)C(=O)Nc2cc3[nH]c(-c4ccccc4)nc3cc21 | 195 to 220 °C
CCn1c(=O)[nH]c2c(C)nn(CC)c2c1=O | 208 to 209 °C
COC(=O)CC(NC(=O)C(CSC(C)=O)Cc1ccccc1)c1ccc2ccccc2c1 (stereo unspecified) | 133 to 135 °C
CC(=O)Oc1c(C)ccc2c1N=CC1CCCN1C2=O (stereo unspecified) | 142 to 145 °C
CCC(=O)N1CCCC2=C1CCc1cc(Cl)ccc12 | 115 to 117 °C
OCCOc1ccc(-c2nc(-c3ccc(OCCO)cc3O)nc(-c3ccc(OCCO)cc3O)n2)cc1 | 169 °C
CCCCc1nc(Cl)c(CC(=O)OCC)c(Cc2ccc(C(=O)O)cc2)n1 | 130 °C
Cc1oc(-c2ccc(Cl)cc2)nc1COc1cccc(/C=C/C(C)n2oc(=O)[nH]c2=O)c1 (stereo unspecified) | 172 to 174 °C
Cc1oc(-c2ccccc2)nc1COc1ccc(CON=C(CCCCCCCC(=O)O)c2ccccc2)cc1 | 67 to 68 °C
Nc1nc(Nc2ccc(N3CCOCC3)cc2)sc1C(=O)c1c(Cl)cncc1Cl | 292 °C
CCCc1nc(SC2CCC(CC(=O)O)CC2)c(C(=O)O)n1Cc1cc2c(cc1Cl)OCO2 (stereo unspecified) | 166 °C
NC(=O)N(O)[C@H]1CC[C@@H](Sc2ccccc2)C1 (relative stereo) | 146 to 148 °C
COc1ccc(C=O)cc1-c1nsc2ccc(-n3c(=O)cc(C(F)(F)F)n(C)c3=O)cc12 | 118 to 120 °C
